Here are results for 21 sequences from publication PMC11705763, “Tumor-associated antigen prediction using a single-sample gene expression state inference algorithm” (Cell Reports Methods, 2024).

The target in one experiment is HLA-A02:01 (Homo sapiens, UniProt P04439, D140Y/D185E/D98H/E176V/E277Q/G131W/G231S/I119V/I121R/I166T/I218V/L300P/L318F/N151K/N90K/P208A/P217A/Q86G/Q94H/R138H/R169H/T345S). The experiment in a line: Peptide-MHC tetramer exchange assay (competitive peptide binding, QuickSwitch Quant HLA-A02:01 tetramer). To be noted: percentage of replacement of the exchangeable peptide by the test peptide.

For experiment [1], the system named is CD8+ T cell cultures / PBMCs from healthy donors. As to the kind of experiment: IFN-gamma ELISpot assay.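 As to Donor2 value: Spot-forming units per 100000 cells.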 In kind it is cell-based, human. To be noted: IFN-gamma ELISpot result; for Donor1_value: healthy donor 1; for Donor2_value: healthy donor 2; for Donor3_value: healthy donor 3; for Donor4_value: healthy donor 4. On the set-up: Donor1_value / Donor3_value / Donor4_value: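 Spot-forming units per 100000 cells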. From the text: We experimentally assessed the binding affinity of the 38 peptides through a competitive peptide binding assay (STAR Methods). […] Subsequently, we investigated the immunogenicity of these peptides using an interferon (IFN)-gamma ELISpot assay (STAR Methods). […] These peptides represent promising candidates for further investigation as potential immunotherapy targets. Peripheral blood mononuclear cells (PBMCs) from healthy donors were isolated at Zhongshan Hospital, Fudan University using Lymphoprep (07851, Stemcell) and cultured with ImmunoCult-XF T cell Expansion Medium (10981, Stemcell) supplemented with human recombinant IL-2 (78036, Stemcell). ImmunoCult Human CD3/CD28 T cell Activator (10971, Stemcell) was added to the cell suspension, which was then incubated for 3 days. Subsequent expansion of the cell suspension was carried out every two days as per manufacturer's instructions. The entire process was approved by the Institutional Review Board of Zhongshan Hospital, Fudan University (B2024-412). ELISPOT plates (2110003, […]) were pretreated with PBS before dispensing cell suspensions (nearly 1×10^5 cells) with synthesized peptide (10 μg/mL) into each well. After incubation at 37°C in a CO2 incubator for 20 h, plates were washed and incubated with anti-human IFN-γ followed by Streptavidin-HRP. Staining of Streptavidin-HRP was performed using AEC solution, and the reaction was stopped by rinsing with cold tap water. ELISPOT plates were scanned and counted using an ImmunoSpot plate reader and associated software from Cellular Technologies, Ltd.

Sequence QILQDGQFLV came in with a Q1_Replacement_Percentage on HLA-A02:01 of 94%. In experiment [1], this sequence returned a Donor1_value of 451, a Donor2_value of 37, a Donor3_value of 0 and a Donor4_value of 17.
FLNEACLFEI returned a Q1_Replacement_Percentage at HLA-A02:01 of 92%. In experiment [1], this sequence returned a Donor1_value of 606, a Donor2_value of 0, a Donor3_value of 7 and a Donor4_value of 10.
The matching figures for FLTSGEDAV: 98.3%, 494, 21, 0 and 0.
As to FLYEVFAQL, the Q1_Replacement_Percentage at HLA-A02:01 is listed as 92.7%. Also, in experiment [1], the Donor1_value worked out at 654, the Donor2_value was determined as 7, the Donor3_value is reported as 4 and the Donor4_value is listed as 0.
VIWDVLSGI registered a Q1_Replacement_Percentage at HLA-A02:01 of 95.5%. Further, in experiment [1], the Donor1_value was 678, the Donor2_value is reported as 0, the Donor3_value amounted to 0 and the Donor4_value was 1.
For KVLEFLAKL, on HLA-A02:01, the Q1_Replacement_Percentage amounted to 88.2%. In experiment [1], the Donor1_value worked out at 545, the Donor2_value came out at 58, the Donor3_value is 12 and the Donor4_value is recorded as 0.
The matching figures for VLLPASLFI: 94.8%, 634, 26, 0 and 0.
At HLA-A02:01, YMLWFLLRHV gave a Q1_Replacement_Percentage of 32.4%. In experiment [1], this sequence gave a Donor1_value of 0, a Donor2_value of 0, a Donor3_value of 29 and a Donor4_value of 0.
The sequence LQILQDGQFLV had a Q1_Replacement_Percentage on HLA-A02:01 of 81.9%. In experiment [1], this sequence displayed a Donor1_value of 0, a Donor2_value of 0, a Donor3_value of 32 and a Donor4_value of 0.
Take AMLKNTVPI: the Q1_Replacement_Percentage at HLA-A02:01 is listed as 89.9%. In experiment [1], this sequence came in with a Donor1_value of 0, a Donor2_value of 0, a Donor3_value of 18 and a Donor4_value of 0.
Sequence YTLDEKVAEL yielded a Q1_Replacement_Percentage on HLA-A02:01 of 91.1%. Moreover, in experiment [1], the Donor1_value turned out to be 640, the Donor2_value is 29, the Donor3_value was found to be 2 and the Donor4_value amounted to 0.
Sequence LLMPLLGVI returned a Q1_Replacement_Percentage on HLA-A02:01 of 96.3%. Also, in experiment [1], the Donor1_value was determined as 627, the Donor2_value amounted to 0, the Donor3_value came out at 11 and the Donor4_value is reported as 48.
FLWGPRAHSEV: the Q1_Replacement_Percentage on HLA-A02:01 stood at 90.4%. In experiment [1], this sequence gave a Donor1_value of 558, a Donor2_value of 0, a Donor3_value of 10 and a Donor4_value of 18.
GLLMPLLGV: the Q1_Replacement_Percentage at HLA-A02:01 is 91.1%. Besides, in experiment [1], the Donor1_value is 521, the Donor2_value worked out at 32, the Donor3_value is recorded as 1 and the Donor4_value was 11.
The matching figures for RKLLMPLLGV: 22.9%, 0, 0, 16 and 0.
As to LLQISNWFI, on HLA-A02:01, the Q1_Replacement_Percentage came out at 32.7%. In experiment [1], this sequence yielded a Donor1_value of 30, a Donor2_value of 0, a Donor3_value of 30 and a Donor4_value of 0.
Regarding KLLMPLLGV, on HLA-A02:01, the Q1_Replacement_Percentage amounted to 97.9%. Besides, in experiment [1], the Donor1_value is 384, the Donor2_value was determined as 0, the Donor3_value worked out at 0 and the Donor4_value is recorded as 13.
Take KVLEYVIKV: the Q1_Replacement_Percentage at HLA-A02:01 was 80.8%. Further, in experiment [1], the Donor1_value is 0, the Donor2_value is 23, the Donor3_value is recorded as 19 and the Donor4_value came to 0.
YLHEQVKTI: the Q1_Replacement_Percentage on HLA-A02:01 came out at 83.5%. Besides, in experiment [1], the Donor1_value was found to be 0, the Donor2_value stood at 59, the Donor3_value was 24 and the Donor4_value came out at 9.
In turn, ILFGISLREV returned a Q1_Replacement_Percentage at HLA-A02:01 of 96.2%. In experiment [1], this sequence returned a Donor1_value of 0, a Donor2_value of 24, a Donor3_value of 20 and a Donor4_value of 8.
Regarding GLAEYLFDKLTL, the Q1_Replacement_Percentage on HLA-A02:01 came out at 89.8%. In addition, in experiment [1], the Donor1_value amounted to 584, the Donor2_value is reported as 0, the Donor3_value stood at 9 and the Donor4_value was determined as 0.
